Measurements as given in PMC3894558, “Chemical signatures and new drug targets for gametocytocidal drug development” (Scientific Reports, 2014).
pIC50: −log10 of the molar value. Read-outs that look alike come from different tables or passages of the source.

Tested on: P. falciparum 3D7 gametocytes
Assay: alamarBlue gametocyte viability assay, strain 3D7
Type: cell-based, Plasmodium falciparum
Conditions: for Max Resp: DMSO set at 0%, 100 nM epoxomicin set at -100%; call rule not given here
[1] = Malaria Box, stages III-V 3D7 gametocytes
[2] = Malaria Box, stages III-V 3D7 gametocytes, 11 concentrations, 1:3 dilution, read-out: IC50
[3] = Malaria Box, stages III-V 3D7 gametocytes, 11 concentrations, 1:3 dilution

O=C(Nc1ccc(Cl)cc1C(=O)Nc1ccncc1)c1ccc(Cl)cc1Cl [MMV666057]
Max Resp (Malaria Box): -57%
Curve Class [1]: -2.2
pIC50 [2]: 4.53

COc1ccc(CN2CCCC(C(=O)c3ccc(C(F)(F)F)cc3)C2)c(O)c1 (centres unmarked) [MMV666060]
Max Resp (Malaria Box): -45%
Curve Class [1]: -1.2
pIC50 [2]: 5.98

COc1cccc(O)c1CN1CCC2(CCCN(Cc3ccc(F)cc3)C2)C1 (centres unmarked) [MMV666061]
Max Resp (Malaria Box): -57%
Curve Class [1]: -1.2
pIC50 [2]: 5.78

Cc1ccc(N2C(=O)C3C(C2=O)C2(c4ccccc4)C(=O)C3(c3ccccc3)C(c3ccccc3)=C2c2ccccc2)cc1 (centres unmarked) [MMV666062]
Max Resp (Malaria Box): 12%
Curve Class [1]: 4
IC50 [3]: Inactive

COc1ccc(CNC2CCN(c3ccc(NC(=O)c4cccc(Cl)c4)cc3)CC2)cc1OC [MMV666067]
Max Resp (Malaria Box): -95%
Curve Class [1]: -2.1
pIC50 [2]: 4.83

COc1ccc(CCN2CCC(CN(C)Cc3cnn(-c4ccccc4)c3)CC2)cc1 [MMV666069]
Max Resp (Malaria Box): -86%
Curve Class [1]: -2.1
pIC50 [2]: 4.98

O=C(NC1CCCC1)c1ccc(N2CCC(NCc3cccc(C(F)(F)F)c3)CC2)cc1 [MMV666070]
Max Resp (Malaria Box): -47%
Curve Class [1]: -2.2
IC50 [3]: Inactive

Cc1ccc(CN2CCC(C(=O)Nc3ccc(-c4cc5ccccc5[nH]4)cc3)CC2)o1 [MMV666071]
Max Resp (Malaria Box): -71%
Curve Class [1]: -2.2
pIC50 [2]: 4.53

COCCNC(=O)c1ccc(OC2CCN(Cc3ccc(F)c(F)c3)CC2)c(Cl)c1 [MMV666072]
Max Resp (Malaria Box): 12%
Curve Class [1]: 4
IC50 [3]: Inactive

COc1ccc(C2N(C)c3ccccc3N2C)cc1 [MMV666075]
Max Resp (Malaria Box): -34%
Curve Class [1]: -2.4
IC50 [3]: Inactive

Cc1ccc2cc3c(N)c4c(C)ccc(C)c4nc3nc2c1 [MMV666079]
Max Resp (Malaria Box): -81%
Curve Class [1]: -2.1
pIC50 [2]: 4.78

O=C(NC(c1ccccc1)c1ccc2cccnc2c1O)c1ccccc1 (centres unmarked) [MMV666080]
Max Resp (Malaria Box): -75%
Curve Class [1]: -2.2
pIC50 [2]: 5.03

CCCc1c(C)nc2ccccc2c1O [MMV666081]
Max Resp (Malaria Box): 23%
Curve Class [1]: 4
IC50 [3]: Inactive

CCCC(c1nnnn1C1CCCCC1)N1CCN(C(=O)c2ccco2)CC1.Cl (centres unmarked) [MMV666093]
Max Resp (Malaria Box): -10%
Curve Class [1]: 4
IC50 [3]: Inactive

CCCc1c(C)nc2ccc(Br)cc2c1O [MMV666095]
Max Resp (Malaria Box): 28%
Curve Class [1]: 4
IC50 [3]: Inactive

COc1ccc(C2=C(c3ccc(OC)cc3)C3(c4ccccc4)C(=O)C2(c2ccccc2)C2C(=O)N(c4ccc(C)cc4)C(=O)C23)cc1 (centres unmarked) [MMV666101]
Max Resp (Malaria Box): 1%
Curve Class [1]: 4
IC50 [3]: Inactive

CN(C)c1ccc(-c2nc3ccc(N)cc3[nH]2)cc1 [MMV666102]
Max Resp (Malaria Box): -75%
Curve Class [1]: -2.2
pIC50 [2]: 4.53

CCn1c(SCC(=O)Nc2cc(C(F)(F)F)ccc2Cl)nc2ccccc2c1=O [MMV666103]
Max Resp (Malaria Box): -11%
Curve Class [1]: 4
IC50 [3]: Inactive

COCCN(C(=O)Cc1cccs1)C(C(=O)NCc1ccc(OC)cc1)c1ccc(C(C)C)cc1 (centres unmarked) [MMV666105]
Max Resp (Malaria Box): -42%
Curve Class [1]: -2.2
IC50 [3]: Inactive

O=C(NC1CCCCC1)C(c1cccs1)N(CCc1ccccc1)C(=O)c1ccco1 (centres unmarked) [MMV666106]
Max Resp (Malaria Box): -29%
Curve Class [1]: 4
IC50 [3]: Inactive

O=C(CCc1ccco1)NC1CCN(CC2(c3ccc(Cl)cc3)CCC2)CC1 [MMV666108]
Max Resp (Malaria Box): -51%
Curve Class [1]: -2.2
IC50 [3]: Inactive

CCOC(=O)C1(Cc2ccccc2)CCN(Cc2cccc(OC)c2O)CC1 [MMV666109]
Max Resp (Malaria Box): -58%
Curve Class [1]: -1.2
pIC50 [2]: 5.28

C=C(C)CCC(C)N1CCC(N2CCC(C(=O)NCCc3ccccc3)CC2)CC1 (centres unmarked) [MMV666110]
Max Resp (Malaria Box): -73%
Curve Class [1]: -2.2
pIC50 [2]: 4.53

Oc1ccccc1CN1CCC2(CCCN(Cc3ccccc3F)C2)C1 (centres unmarked) [MMV666116]
Max Resp (Malaria Box): -46%
Curve Class [1]: -1.2
pIC50 [2]: 6.18

CC(C)(C)c1ccc(C(=O)Nc2c3c(nn2-c2cccc(Cl)c2)CSC3)cc1 [MMV666123]
Max Resp (Malaria Box): -6%
Curve Class [1]: 4
IC50 [3]: Inactive

CC(=O)c1ccc(NC(=O)CSc2nc(-c3ccccc3Cl)ns2)cc1 [MMV666124]
Max Resp (Malaria Box): -33%
Curve Class [1]: -3
IC50 [3]: Inactive

CC1=C(CC(=O)c2cccc([N+](=O)[O-])c2)C(=O)c2ccccc2C1=O [MMV666125]
reduction of gametocyte viability (Malaria Box screen): > 75%
Max Resp (Malaria Box): -116%
Curve Class [1]: -1.1
pIC50 [2]: 6.08
pIC50 (P. falciparum 3D7 gametocytes, mean of at least 3 independent experiments, read-out: Gametocyte IC50): > 6.00

CSC1=NC(=Nc2c(C)cccc2C)C2(CCC(C(C)(C)C)CC2)N1c1ccc(Cl)cc1 (centres unmarked) [MMV666596]
Max Resp (Malaria Box): 14%
Curve Class [1]: 4
IC50 [3]: Inactive

CCCCCCc1cc2cc(-c3nc4ccccc4[nH]3)c(=Nc3ccccc3C)oc2cc1O [MMV666597]
Max Resp (Malaria Box): -27%
Curve Class [1]: -1.4
pIC50 [2]: 5.68

O=c1nc(C=Cc2ccc(Br)cc2)oc2ccccc12 [MMV666599]
Max Resp (Malaria Box): 4%
Curve Class [1]: 4
IC50 [3]: Inactive

CCOC(=O)c1c(C)n(-c2ccc(Cl)cc2)c2ccc(OC(=O)C=Cc3ccccc3)cc12 [MMV666600]
Max Resp (Malaria Box): 2%
Curve Class [1]: 4
IC50 [3]: Inactive

CCOC(=O)C1=C(c2ccccc2)N=c2sc(=Cc3cc(C)n(-c4ccc(F)cc4)c3C)c(=O)n2C1c1cccc(OC)c1OC (centres unmarked) [MMV666601]
Max Resp (Malaria Box): -26%
Curve Class [1]: 4
IC50 [3]: Inactive

CCOC(=O)C1=C(C)N=c2sc(=Cc3ccccc3O)c(=O)n2C1c1ccc(OC)c2ccccc12 (centres unmarked) [MMV666604]
Max Resp (Malaria Box): -68%
Curve Class [1]: -1.2
pIC50 [2]: 5.13
